Test results from ChEMBL document CHEMBL3045389, “Synthesis and insect antifeedant activity of plumbagin derivatives” (2012).

Key:
Spodoptera litura = test: Antifeedant activity against prestarved healthy third-instar larval stage of Spodoptera litura assessed as area of leaf consumed after 6 hr by conventional no-choice leaf-disk bioassay; assay type: functional
Achaea janata = test: Antifeedant activity against prestarved healthy third-instar larval stage of Achaea janata assessed as area of leaf consumed after 6 hr by conventional no-choice leaf-disk bioassay; assay type: functional

Row | Structure (SMILES) | ED50 (Spodoptera litura) [microg/cm2] | ED50 (Achaea janata) [microg/cm2]
1 | CCCNC1=C(C)C(=O)c2cccc(OC)c2C1=O | >500 | >500
2 | CCCCCCCCCCCCNC1=C(C)C(=O)c2cccc(OC)c2C1=O | >500 | 59.62
3 | CCCCCCCCCCCCCCCCNC1=C(C)C(=O)c2cccc(OC)c2C1=O | 16.77 | 64.23
4 | CCCCCCCCCCNC1=C(C)C(=O)c2cccc(OC)c2C1=O | 31.109 | 30.25
5 | CCCCCCCCCNC1=C(C)C(=O)c2cccc(OC)c2C1=O | 32.5 | 24.04
6 | COc1cccc2c1C(=O)C(NCc1ccc(F)cc1)=C(C)C2=O | 302.32 | 51.091
7 | COc1cccc2c1C(=O)C(NCc1ccccc1)=C(C)C2=O | >500 | >500
8 | CCCCNC1=C(C)C(=O)c2cccc(OC)c2C1=O | 64.08 | >500
9 | CCCCCCCC/C=C/CCCCCCCCNC1=C(C)C(=O)c2cccc(OC)c2C1=O | 180.36 | 26.49
10 | C=CCNC1=C(C)C(=O)c2cccc(OC)c2C1=O | 31.22 | 13.51
11 | COc1cccc2c1C(=O)C(NCc1ccc(C(F)(F)F)cc1)=C(C)C2=O | >500 | 21.82
12 | C/C=C(\C)C(=O)O[C@H]1C[C@@H](OC(C)=O)[C@@]2(C(=O)OC)CO[C@H]3[C@@H](O)[C@@](C)([C@]45O[C@@]4(C)[C@@H]4C[C@H]5O[C@@H]5OC=C[C@@]54O)[C@H]4[C@]1(CO[C@]4(O)C(=O)OC)[C@@H]32 [AZADIRACHTIN A] | 0.89 | 0.72
13 | CCNC1=C(C)C(=O)c2cccc(OC)c2C1=O | >500 | 24.41
14 | CC1=CC(=O)c2c(O)cccc2C1=O [PLUMBAGIN] | 43.71 | 23.97
15 | CCCCCCCCNC1=C(C)C(=O)c2cccc(OC)c2C1=O | >500 | 44.76
16 | COc1ccc(CNC2=C(C)C(=O)c3cccc(OC)c3C2=O)cc1 | >500 | >500
17 | CCCCCCNC1=C(C)C(=O)c2cccc(OC)c2C1=O | 278.34 | 73.31
